Assays:
HL-60 cells [1] = experiment: Binding property of monoclonal antibodies (MAS 072 anti-human monocyte, OKT 9 anti-human transferrin receptor) to treated HL-60 cells, indirect fluorescent antibody technique, FACS; type: cell-based; conditions: for Binding property of monoclonal antibody MAS072 (%): anti-human monocyte antibody, control 17.0; for Binding property of monoclonal antibody OKT9 (%): anti-human transferrin receptor antibody, control 95.7
Experimental: HL-60 cells wre treated with the agent as described above, and then stained by indirect fluorescent antibody technique using monoclonal antibodies [MAS 072 (Sera-lab) anti-human monocyte and OKT 9 (Ortho-mune) anti-human transferrin receptor] and a fluorescent antibody [FITC-anti-mouse IgG (Miles)], and the resulting fluorescence intensity was determined by FACS to obtain the binding property of the monoclonal antibody in terms of a percentage.

HL-60 cells [2] = experiment: Proliferation-suppression rate of HL-60 cells (Coulter counter); type: cell-based; conditions: Homo sapiens, 96 h, HL-60, 4 days, relative to untreated group; for inhibition at 0.01 µM: 1x10^-8 M (column of 1α, 25-(OH)2D3 printed 1x10^8); for inhibition at 0.003 µM: 3x10^-9 M
Experimental: An HL-60 cell fluid adjusted to a concentration of 5 x 10^4 cells/ml was incorporated with each of the agents to be tested and cultivated in a carbon dioxide incubator at 37°C for 4 days. After the cultivation, the number of cells was measured by means of a Coulter counter. The percentage of the number thus measured relative to the number of cells in an untreated group was calculated, from which the proliferation-suppression rate was obtained.

HL-60 cells [3] = experiment: NBT reduction of HL-60 cells after treatment (TPA stimulation, microscopy); type: cell-based, human; conditions: HL-60 treated 4 days, percentage of NBT reduction-positive cells of 200 cells
Experimental: Thereafter, the cells were smeared onto a slide glass, subjected to giemsa staining, and the coloration of cells was examined under a microscope. The number of colored cells was measured for 200 cells, and the results were expressed in terms of the percentage of NBT reduction- positive cells.

[4] = 1x10^-8 M (column of 1α, 25-(OH)2D3 printed 1x10^8)

| SMILES | Binding property of monoclonal antibody MAS072 (%) (HL-60 cells [1]; [4]) | Binding property of monoclonal antibody OKT9 (%) (HL-60 cells [1]; [4]) | Binding property of monoclonal antibody OKT9 (%) (HL-60 cells [1]; 3x10^-9 M) | inhibition at 0.01 µM (HL-60 cells [2]) [%] | inhibition at 0.003 µM (HL-60 cells [2]) [%] | NBT reduction rate (%) (HL-60 cells [3]; [4]) | NBT reduction rate (%) (HL-60 cells [3]; 3x10^-9 M) |
| --- | --- | --- | --- | --- | --- | --- | --- |
| C=C1C(=CC=C2CCCC3(C)C2CCC3C(C)CCCC(C)(C)O)CC(O)CC1O (stereo not drawn) [1α, 25-(OH)2D3, 1α, 25-dihydroxyvitamin D3] | 55.8 | 22.6 | 61.5 | 66 | 47.2 | 87.0 | 48.5 |
| C=C1C(=CC=C2CCCC3(C)C2CCC3C(C)CCCC(C(F)(F)F)C(F)(F)F)CC(O)CC1O (centres unmarked) [Compound A, 26,26,26,27,27,27-hexafluoro-la-hydroxyvitamin D3] | 79.0 | 11.1 | 16.7 | 74.9 | 58.5 | 91.5 | 77.0 |

— patent EP0205025A1, “Fluorine derivatives of vitamin D3 and cell differentiation-inducing agents containing the same as an active ingredient” (SUMITOMO PHARMACEUTICALS COMPANY, LIMITED, priority 1985, dated 1986)
